The structures appear in SMILES notation.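 96-well plates; 48 h exposure; 5 concentrations. Endpoints by linear interpolation between flanking doses. Not reached: highest tested concentration assigned. Here, GI50 denotes the concentration required for 50% inhibition of growth. At the TGI there is no net growth.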

Here are results for 16 molecules from PubChem BioAssay (NCI).

Among the test systems are EKVX NSCLC; LOX IMVI melanoma; MOLT-4 leukemia; SF-268 CNS; SK-MEL-5 melanoma; SNB-19 CNS; OVCAR-4 ovarian; DU-145 prostate; NCI/ADR-RES ovarian.
Assay in all cases: inhibition of tumour cell growth, NCI panel, 48 h

For `Cn1nc(-c2ccccc2)c2c(/C=C/c3ccc(Cl)cc3)onc2c1=O`, the TGI is above 100 µM in the experiment with EKVX NSCLC; 95.4 µM with LOX IMVI melanoma; above 100 µM in the experiment on MOLT-4 leukemia; above 100 µM with SF-268 CNS; above 100 µM in the experiment with SK-MEL-5 melanoma; above 100 µM in the experiment with SNB-19 CNS.

For the molecule `O=C1c2cccc([N+](=O)[O-])c2C(=O)c2nccnc21`, the TGI came out at 3.92 µM in the experiment on EKVX NSCLC; 2.68 µM in the experiment with LOX IMVI melanoma; 5.22 µM in the experiment on MOLT-4 leukemia; 2.8 µM with OVCAR-4 ovarian; 1.13 µM in the experiment on SK-MEL-5 melanoma; 4.04 µM in the experiment on SNB-19 CNS.

Turning to `O=C(CN(Cc1ccccc1)Cc1ccccc1)N1CCc2c([nH]c3ccccc23)C1c1cccnc1` (stereo not given), the TGI in the experiment on EKVX NSCLC was above 100 µM; in the experiment with LOX IMVI melanoma, 39.5 µM; in the experiment with MOLT-4 leukemia, 6.88 µM; in the experiment on OVCAR-4 ovarian, above 100 µM; with SF-268 CNS, above 100 µM; in the experiment with SK-MEL-5 melanoma it was 20.1 µM. In the experiment with SNB-19 CNS, this molecule registered a TGI above 100 µM.

Consider `COC(=O)C(=O)C(C#N)c1cccc(Cl)c1` (stereo not given), for which the TGI with EKVX NSCLC, with LOX IMVI melanoma, in the experiment on MOLT-4 leukemia, in the experiment on OVCAR-4 ovarian, with SF-268 CNS and in the experiment on SK-MEL-5 melanoma was above 100 µM throughout. Further, the TGI in the experiment with SNB-19 CNS was above 100 µM.

With `CC12CCCC(C#N)(C1)OC2=O` (stereo not given), the TGI in the experiment on EKVX NSCLC, in the experiment on MOLT-4 leukemia, in the experiment with OVCAR-4 ovarian, in the experiment with SF-268 CNS, in the experiment on SK-MEL-5 melanoma and with SNB-19 CNS was above 100 µM throughout.

Consider `Cc1cc2nc3c(=O)[nH]c(=O)nc-3n(CC(O)C(O)C(O)CO)c2cc1N` (stereo not given), for which the TGI in the experiment on EKVX NSCLC, in the experiment with LOX IMVI melanoma, in the experiment on MOLT-4 leukemia, in the experiment on OVCAR-4 ovarian, in the experiment with SK-MEL-5 melanoma and in the experiment on SNB-19 CNS was above 100 µM each time.

As for `N.N.N.N.N.N#Cc1nn[n-]n1.[Cl-].[Co+3]`, the GI50 in the experiment on EKVX NSCLC, in the experiment with LOX IMVI melanoma, with MOLT-4 leukemia, in the experiment with OVCAR-4 ovarian, in the experiment on SF-268 CNS and in the experiment on SK-MEL-5 melanoma was above 100 µM each time. Moreover, the GI50 in the experiment with SNB-19 CNS is above 100 µM. Also, the TGI in the experiment on EKVX NSCLC, in the experiment with LOX IMVI melanoma, in the experiment with MOLT-4 leukemia, with OVCAR-4 ovarian, with SF-268 CNS and in the experiment on SK-MEL-5 melanoma was above 100 µM throughout. Further, in the experiment with SNB-19 CNS, the TGI is above 100 µM.

Take `O=C1C(Cl)=C(Cl)C(=O)N1c1ccccc1Cl`: the TGI was above 100 µM with EKVX NSCLC; above 100 µM in the experiment with LOX IMVI melanoma; above 78.5 µM in the experiment on MOLT-4 leukemia; above 100 µM in the experiment on OVCAR-4 ovarian; above 100 µM in the experiment with SF-268 CNS; above 100 µM in the experiment with SK-MEL-5 melanoma. In addition, the TGI in the experiment with SNB-19 CNS was above 100 µM.

Turning to `C/C=C(\C)c1cc(=O)c2c(C)cc3c(c2o1)C(OC)(OC(C)=O)c1c(O)c(C2CC(C)(N(C)C)C(OC(C)=O)C(C)O2)cc(C2CC(N(C)C)C(OC(C)=O)C(C)O2)c1C3=O` (stereo not given), the TGI in the experiment with DU-145 prostate is 5.08 µM; in the experiment on EKVX NSCLC it was 11.6 µM; in the experiment with MOLT-4 leukemia, 10.3 µM; in the experiment on NCI/ADR-RES ovarian, above 25.7 µM; in the experiment on SF-268 CNS, 4.89 µM; in the experiment with SK-MEL-5 melanoma, above 100 µM. In the experiment with SNB-19 CNS, this molecule gave a TGI of 14.1 µM.

`CN(C)CCCOc1ccc(/C=C2/CCC/C(=C/c3ccc(OCCCN(C)C)cc3)C2=O)cc1`: the TGI in the experiment with EKVX NSCLC is 6.84 µM; in the experiment with LOX IMVI melanoma it was 3.29 µM; in the experiment on MOLT-4 leukemia, 2.5 µM; in the experiment on OVCAR-4 ovarian it was 7.1 µM; in the experiment on SF-268 CNS, 4.84 µM; in the experiment on SK-MEL-5 melanoma it was 3.92 µM. The molecule further gave a TGI in the experiment on SNB-19 CNS of 4.74 µM.

Turning to `COc1cccc(N2C(=O)/C(=C/c3ccc(N(CCC#N)CCC#N)cc3)N=C2c2cc([N+](=O)[O-])ccc2Cl)c1`, the TGI in the experiment on MOLT-4 leukemia was 68.2 µM; in the experiment on OVCAR-4 ovarian it was above 100 µM; in the experiment with SF-268 CNS it was above 100 µM; in the experiment with SK-MEL-5 melanoma, above 100 µM; in the experiment with SNB-19 CNS it was above 100 µM.

In the case of `O=C(CCC(=O)Nc1ccc(Cl)cc1)CC(=O)c1ccc2ccccc2c1`, the TGI in the experiment on EKVX NSCLC, in the experiment with LOX IMVI melanoma, with MOLT-4 leukemia, with OVCAR-4 ovarian, in the experiment with SF-268 CNS and with SK-MEL-5 melanoma was above 100 µM throughout. The TGI in the experiment with SNB-19 CNS was above 100 µM.

Take `CCOC(=O)NC(=O)c1cn(CCCCCCCCCCC(=O)NCCCN2CCN(CCCNC(=O)CCCCCCCCCCn3cc(C(=O)NC(=O)OCC)c(=O)[nH]c3=O)CC2)c(=O)[nH]c1=O`: the TGI in the experiment with LOX IMVI melanoma, in the experiment on MOLT-4 leukemia, in the experiment with SF-268 CNS and in the experiment on SNB-19 CNS was above 100 µM in each case.

Consider `O=C(Nc1ccccc1)n1cc(-c2ccccn2)c(N2CCOCC2)n1`, for which the TGI in the experiment with EKVX NSCLC, in the experiment with LOX IMVI melanoma, with MOLT-4 leukemia, in the experiment on OVCAR-4 ovarian, in the experiment with SF-268 CNS and in the experiment with SK-MEL-5 melanoma was above 100 µM throughout. The molecule further gave a TGI with SNB-19 CNS above 100 µM.

For the molecule `COc1ccc(/C(=C/c2ccc3ccccc3c2)c2nn[nH]n2)cc1OC`, the GI50 in the experiment on DU-145 prostate was 3.53 µM; in the experiment on EKVX NSCLC it was 18.2 µM; in the experiment on LOX IMVI melanoma, 5.63 µM; in the experiment with MOLT-4 leukemia, 4.16 µM; in the experiment with NCI/ADR-RES ovarian, 1.03 µM; with OVCAR-4 ovarian it was 7.78 µM. In addition, the GI50 is 6.55 µM in the experiment with SF-268 CNS, 4.68 µM in the experiment with SK-MEL-5 melanoma and 7.84 µM with SNB-19 CNS. Moreover, the TGI in the experiment on DU-145 prostate was 49.2 µM; in the experiment with EKVX NSCLC it was above 100 µM; in the experiment on LOX IMVI melanoma it was above 100 µM; with MOLT-4 leukemia, above 100 µM; with NCI/ADR-RES ovarian, above 100 µM; with OVCAR-4 ovarian it was above 100 µM. In addition, the values for the TGI in the experiment on SF-268 CNS, with SK-MEL-5 melanoma and in the experiment with SNB-19 CNS were above 100 µM, 23.8 µM and above 100 µM, respectively.

Regarding `COC(=O)C(=NNc1ccccc1[N+](=O)[O-])C(=O)OC`, the TGI in the experiment with EKVX NSCLC, in the experiment on LOX IMVI melanoma, in the experiment with MOLT-4 leukemia, with OVCAR-4 ovarian, with SF-268 CNS and with SNB-19 CNS was above 100 µM in each case.
